Measured values published in US4791139A, “Diphenyl ether derivatives and their use as insecticides” (Imperial Chemical Industries PLC, priority 1986, dated 1988).

Legend:
Format in all cases: in vivo
[1] = test system: Meloidogyne incognita (Tomato root knot eelworm - larvae); test: Residual test, Tomato root knot eelworm - larvae (MI), Semi in-vitro; details: 168 h, application rate is half that recorded, 7 days, read-out: MI grading of mortality; for mortality at 250 µg/mL: rate column 500 ppm; for mortality at 125 µg/mL: rate 250 ppm
[2] = test system: Blattella germanica (cockroach nymphs); test: Residual test, cockroach nymphs (BG), Plastic pot; details: 72 h, 3 days, read-out: BG grading of mortality
Method: (§1) The activity of the Product was determined using a variety of insect pests. The Product was used in the form of liquid preparations containing from 100 to 500 parts per million (ppm) by weight of the Product. The preparations were made by dissolving the Product in acetone and diluting the solutions with water containing 0.1% by weight of a wetting agent sold under the trade name "SYNPERONIC" NX until the liquid preparations contained the required concentration of the Product. "SYNPERONIC" is a Registered Trade Mark. The test procedure adopted with regard to each pest was basically the same and comprised supporting a number of the pests on a medium which was usually a host plant or a foodstuff on which the pests feed, and treating either or both the pests and the medium with the preparations. The mortality of the pests was then assessed at periods usually varying from one to seven days after the treatment.

[3] = test system: Spodoptera exigua (lesser army worm - larvae); test: Residual test, lesser army worm - larvae (SP), Cotton leaf; details: 72 h, 3 days, read-out: SP grading of mortality
Method: (§2) The activity of the Product was determined using a variety of insect pests. The Product was used in the form of liquid preparations containing from 100 to 500 parts per million (ppm) by weight of the Product. The preparations were made by dissolving the Product in acetone and diluting the solutions with water containing 0.1% by weight of a wetting agent sold under the trade name "SYNPERONIC" NX until the liquid preparations contained the required concentration of the Product. "SYNPERONIC" is a Registered Trade Mark.
(§3) The test procedure adopted with regard to each pest was basically the same and comprised supporting a number of the pests on a medium which was usually a host plant or a foodstuff on which the pests feed, and treating either or both the pests and the medium with the preparations. The mortality of the pests was then assessed at periods usually varying from one to seven days after the treatment.
(§4) The results of the tests are given in Table III for each of the Products, at the rate in parts per million given in the second column as a grading of mortality designated as A, B or C wherein A indicates 80-100% mortality or knockdown (70-100% for Meloidogyne incognita), B indicates 50-79% mortality knockdown or knockdown (50-69% for Meloidogyne incognita) and C indicates less than 50% mortality or knockdown.
(§5) In Table III the pest organism used is designated by a letter code and the pests species, the support medium or food, and the type and duration of test is given in Table II.
(lesser army worm - larvae)

[4] = test system: Nilaparvata lugens (brown plant hopper - nymphs); test: Contact test, brown plant hopper - nymphs (NL), Rice plant; details: 72 h, 3 days, read-out: NL grading of mortality
Method: as §1

[5] = test system: Diabrotica balteata (rootworm larvae); test: Residual test, rootworm larvae (DB), Filter paper/maize seed; details: 72 h, 3 days, read-out: DB grading of mortality
Method: as §1

[6] = test system: Musca domestica (houseflies - adults); test: Knockdown test, houseflies - adults (MD/KD), Cotton wool/sugar; details: 4 hours, read-out: MD/KD grading of knockdown
Method: as §2, §3
In the case of the species Musca domestica (housefly), an additional assessment to determine the knockdown effect of the compounds was performed.
as §5

Myzus persicae (aphids) = test: Contact test, aphids (MP), Chinese Cabbage leaf; details: 72 h, 3 days, read-out: MP grading of mortality
Method: as §1, with “treatment. […] In Table III the pest organism used is designated by a letter code and the pests species, the support medium or food, and the type and duration of test is given in Table II.” for “treatment.”

[7] = test system: Tetranychus urticae (spider mites - adult); test: Contact test, spider mites - adult (TUa), French bean leaf; details: 72 h, 3 days, read-out: TUA grading of mortality
Method: as §1

[8] = test system: Heliothis virescens (tobacco budworm - larvae); test: Residual test, tobacco budworm - larvae (HV), Cotton leaf; details: 72 h, read-out: HV grading of mortality
Method: as §2, §3, §4, §5
(tobacco budworm - larvae)

[9] = test system: Musca domestica (houseflies - adults); test: Contact test, houseflies - adults (MD), Cotton wool/sugar; details: 24 h, 1 day, read-out: MD grading of mortality
Method: as §1

[10] = test system: Tetranychus urticae (spider mites - ova); test: Contact test, spider mites - ova (TUe), French bean leaf; details: 144 h, 6 days, read-out: TUE grading of mortality
Method: as §1

FC(F)(F)C(CCCc1cccc(Oc2ccccc2)c1)c1ccc(OC(F)(F)C(F)(F)Br)cc1 (racemic) [Compound 68, 1,1,1-trifluoro-2-[4-(2-bromo-1,1,2,2-tetrafluoroethoxy)phenyl]-5-(3-phenoxyphenyl)-pentane]
mortality at 250 µg/mL [1]: < 50% | mortality at 500 ppm [2]: 80 to 100% | mortality at 500 ppm [3]: 50 to 79% | mortality at 500 ppm [4]: 80 to 100% | mortality at 500 ppm [5]: 80 to 100% | pest or weed control at 500 ppm [6]: < 50% | mortality at 500 ppm (Myzus persicae (aphids)): < 50% | mortality at 500 ppm [7]: 80 to 100% | mortality at 500 ppm [8]: < 50% | mortality at 500 ppm [9]: < 50% | mortality at 500 ppm [10]: 80 to 100%

FC(F)(F)Oc1ccc(C(Cl)(CCCc2cccc(Oc3ccccc3)c2)C(F)(F)F)cc1 (racemic) [Compound 62, 1,1,1-trifluoro-2-chloro-2-(4-trifluoromethoxyphenyl)-5-(3-phenoxyphenyl)pentane]
mortality at 125 µg/mL [1]: < 50% | mortality at 250 ppm [2]: < 50% | mortality at 250 ppm [3]: < 50% | mortality at 250 ppm [4]: < 50% | mortality at 250 ppm [5]: < 50% | pest or weed control at 250 ppm [6]: < 50% | mortality at 250 ppm (Myzus persicae (aphids)): < 50% | mortality at 250 ppm [7]: < 50% | mortality at 250 ppm [8]: < 50% | mortality at 250 ppm [9]: < 50% | mortality at 250 ppm [10]: < 50%

FC(F)(F)C(=CCCc1cccc(Oc2ccccc2)c1)c1ccc2c(c1)CCC2 [Compound 48, 1,1,1-Trifluoro-2-(5-indanyl)-5-(3-phenoxyphenyl)pent-2-ene]
mortality at 125 µg/mL [1]: < 50% | mortality at 250 ppm [2]: 50 to 79% | mortality at 250 ppm [3]: < 50% | mortality at 250 ppm [4]: < 50% | mortality at 250 ppm [5]: 50 to 79% | pest or weed control at 250 ppm [6]: < 50% | mortality at 250 ppm (Myzus persicae (aphids)): < 50% | mortality at 250 ppm [7]: < 50% | mortality at 250 ppm [8]: < 50% | mortality at 250 ppm [9]: < 50% | mortality at 250 ppm [10]: < 50%

CC1(C)Oc2ccc(C(CCCc3cccc(Oc4ccccc4)c3)C(F)(F)F)cc2O1 (stereo not shown) [Compound 58, 1,1,1-Trifluoro-2-[3,4-(dimethylmethylenedioxy)phenyl]-5-(3-phenoxyphenyl)pentane]
mortality at 250 µg/mL [1]: < 50% | mortality at 500 ppm [2]: 80 to 100% | mortality at 500 ppm [3]: 50 to 79% | mortality at 500 ppm [4]: 80 to 100% | mortality at 500 ppm [5]: 80 to 100% | pest or weed control at 500 ppm [6]: 80 to 100% | mortality at 500 ppm (Myzus persicae (aphids)): 50 to 79% | mortality at 500 ppm [7]: < 50% | mortality at 500 ppm [8]: < 50% | mortality at 500 ppm [9]: 80 to 100% | mortality at 500 ppm [10]: 80 to 100%

FC(F)(F)Oc1ccc(C(=CC=Cc2cccc(Oc3ccccc3)c2)C(F)(F)Cl)cc1 [Compound 70, 1,1-Difluoro-1-chloro-2-(4-trifluoromethoxyphenyl)-5-(3-phenoxyphenyl)penta-2,4-diene]
mortality at 250 µg/mL [1]: 50 to 69% | mortality at 500 ppm [2]: < 50% | mortality at 500 ppm [3]: < 50% | mortality at 500 ppm [4]: < 50% | mortality at 500 ppm [5]: < 50% | pest or weed control at 500 ppm [6]: < 50% | mortality at 500 ppm (Myzus persicae (aphids)): < 50% | mortality at 500 ppm [7]: < 50% | mortality at 500 ppm [8]: < 50% | mortality at 500 ppm [9]: < 50% | mortality at 500 ppm [10]: < 50%

CCOc1ccc(C(CCC(C#N)c2cccc(Oc3ccccc3)c2)C(F)(F)F)cc1 (racemic) [Compound 54, 1,1,1-Trifluoro-2-(4-ethoxyphenyl)-5-cyano-5-(3-phenoxyphenyl)pentane]
mortality at 250 µg/mL [1]: < 50% | mortality at 500 ppm [2]: < 50% | mortality at 500 ppm [3]: 80 to 100% | mortality at 500 ppm [4]: 80 to 100% | mortality at 500 ppm [5]: < 50% | pest or weed control at 500 ppm [6]: 80 to 100% | mortality at 500 ppm (Myzus persicae (aphids)): 80 to 100% | mortality at 500 ppm [7]: < 50% | mortality at 500 ppm [8]: 80 to 100% | mortality at 500 ppm [9]: 80 to 100% | mortality at 500 ppm [10]: < 50%

CCOc1ccc(C(CC=Cc2cccc(Oc3ccccc3)n2)C(F)(F)F)cc1 (stereo not shown) [Compound 99, 1,1,1-Trifluoro-2-(4-ethoxyphenyl)-5-(6-phenoxypyrid-2-yl)pent-4-ene]
mortality at 250 µg/mL [1]: < 50% | mortality at 500 ppm [2]: < 50% | mortality at 500 ppm [3]: 50 to 79% | mortality at 500 ppm [4]: < 50% | mortality at 500 ppm [5]: < 50% | pest or weed control at 500 ppm [6]: 80 to 100% | mortality at 500 ppm (Myzus persicae (aphids)): 50 to 79% | mortality at 500 ppm [7]: < 50% | mortality at 500 ppm [8]: 80 to 100% | mortality at 500 ppm [9]: 80 to 100% | mortality at 500 ppm [10]: < 50%

OC(CCCc1cccc(Oc2ccccc2)c1)(c1ccc(OC(F)(F)F)cc1)C(F)(F)F (racemic) [Compound 59, 1,1,1-trifluoro-2-hydroxy-2-(4-trifluoromethoxyphenyl)-5-(3-phenoxyphenyl)pentane]
mortality at 250 µg/mL [1]: < 50% | mortality at 500 ppm [2]: < 50% | mortality at 500 ppm [3]: < 50% | mortality at 500 ppm [4]: 80 to 100% | mortality at 500 ppm [5]: 80 to 100% | pest or weed control at 500 ppm [6]: < 50% | mortality at 500 ppm (Myzus persicae (aphids)): < 50% | mortality at 500 ppm [7]: 80 to 100% | mortality at 500 ppm [8]: < 50% | mortality at 500 ppm [9]: < 50% | mortality at 500 ppm [10]: < 50%

Fc1cc(C(CCCc2cccc(Oc3ccccc3)c2)C(F)(F)F)cc(F)c1OC(F)(F)F (racemic) [Compound 71, 1,1,1-Trifluoro-2-(3,5-difluoro-4-trifluoromethoxyphenyl)-5-(3-phenoxyphenyl)pentane]
mortality at 250 µg/mL [1]: 70 to 100% | mortality at 500 ppm [2]: < 50% | mortality at 500 ppm [3]: 80 to 100% | mortality at 500 ppm [4]: 50 to 79% | mortality at 500 ppm [5]: 80 to 100% | pest or weed control at 500 ppm [6]: < 50% | mortality at 500 ppm (Myzus persicae (aphids)): 80 to 100% | mortality at 500 ppm [7]: < 50% | mortality at 500 ppm [8]: 80 to 100% | mortality at 500 ppm [9]: < 50% | mortality at 500 ppm [10]: < 50%

Fc1cc(C(=CC=Cc2cccc(Oc3ccccc3)c2)C(F)(F)F)cc(F)c1OC(F)(F)F [Compound 75, 1,1,1-Trifluoro-2-(3,5-difluoro-4-trifluoromethoxyphenyl)-5-(3-phenoxyphenyl)penta-2,4-diene]
mortality at 250 µg/mL [1]: < 50% | mortality at 500 ppm [2]: < 50% | mortality at 500 ppm [3]: < 50% | mortality at 500 ppm [4]: < 50% | mortality at 500 ppm [5]: < 50% | pest or weed control at 500 ppm [6]: < 50% | mortality at 500 ppm (Myzus persicae (aphids)): < 50% | mortality at 500 ppm [7]: < 50% | mortality at 500 ppm [8]: < 50% | mortality at 500 ppm [9]: < 50% | mortality at 500 ppm [10]: < 50%

Fc1ccc(C(CCCc2cccc(Oc3ccccc3)c2)C(F)(F)F)c(F)c1OC(F)(F)F (racemic) [Compound 72, 1,1,1-Trifluoro-2-(2,4-difluoro-3-trifluoromethoxyphenyl)-5-(3-phenoxyphenyl)-pentane]
mortality at 250 µg/mL [1]: < 50% | mortality at 500 ppm [2]: 80 to 100% | mortality at 500 ppm [3]: 80 to 100% | mortality at 500 ppm [4]: 50 to 79% | mortality at 500 ppm [5]: 80 to 100% | pest or weed control at 500 ppm [6]: < 50% | mortality at 500 ppm (Myzus persicae (aphids)): 80 to 100% | mortality at 500 ppm [7]: 50 to 79% | mortality at 500 ppm [8]: 80 to 100% | mortality at 500 ppm [9]: < 50% | mortality at 500 ppm [10]: < 50%
